Results as given in patent US11034648B2, “Cystobactamide derivatives” (priority 2017, dated 2021).
Values after ≈ are worked out from the molar mass of the structure shown.

Columns and labels:
Type in all cases: cell-based
E. coli WT DSM-1116 = assay: MIC, microbroth dilution susceptibility assay; conditions: Escherichia coli, DSM1116; small panel, Tables 1a/1b; no visual growth after approx. 16 h; read-out: MIC E. coli WT DSM-1116
Procedure: (§1) Cystobactamid derivatives synthesized were tested against relevant Gram negative and positive bacteria of clinical interest. Experimental procedures used for the biological characterization of the compounds are the same as previously described in WO 2016/082934.
(§2) Bacterial strains used in susceptibility assays (minimum inhibitory concentration, MIC) were either part of our internal strain collection or purchased from the German Collection of Microorganisms and Cell Cultures (Deutsche Sammlung von Mikroorganismen und Zellkulturen, DSMZ) and the American Type Culture Collection (ATCC). The susceptible E. coli strain (WT) and fluoroquinolone-resistant mutants E. coli WT-3 and WT-III were kindly provided by Prof Dr. P. Heisig, Pharmaceutical Biology and Microbiology, University of Hamburg, Germany. The efflux-deficient strain P. aeruginosa ΔmexAB was kindly provided by Prof Dr. S. Häußler, Institute for Molecular Bacteriology, TWINCORE, Hannover, Germany. All compounds were prepared as DMSO stocks and MIC values were determined in standard microbroth dilution assays in 96-well MTPs as described in Baumann et al., Angew Chem Int Ed Engl. 2014; 53(52):14605-9. In brief, overnight cultures of bacteria were diluted in either tryptic soy broth (TSB: 1.7% peptone casein, 0.3% peptone soymeal, 0.25% glucose, 0.5% NaCl, 0.25% K2HPO4; pH 7.3; S. pneumoniae and E. faecalis) or cation-adjusted Müller-Hinton Broth (BBL™, BD; all other bacteria) and adjusted to 10^4-10^6 cfu/mL. Bacteria were grown in the presence of the derivatives in serial dilution for approx. 16 h at 30-37° C. MIC values were determined and were defined as the antibiotic concentration at which no visual growth of bacteria was observed.

S. aureus Newman = assay: MIC, microbroth dilution susceptibility assay; conditions: Staphylococcus aureus, NEWMAN; small panel, Tables 1a/1b; read-out: MIC S. aureus Newman
Procedure: as §1, §2

P. aeruginosa WT PA14 = assay: MIC, microbroth dilution susceptibility assay; conditions: Pseudomonas aeruginosa, PA14, small panel, Tables 1a/1b; read-out: MIC P. aeruginosa WT PA14
Procedure: as §1, §2

P. aeruginosa ΔmexAB = assay: microbe, parasite or virus in culture; conditions: Pseudomonas aeruginosa, 16 h, read-out: MIC P. aeruginosa ΔmexAB, efflux-deficient strain; small panel, Tables 1a/1b
Procedure: as §1, §2

E. coli ΔtolC = assay: microbe, parasite or virus in culture; conditions: Escherichia coli, 16 h, read-out: MIC E. coli ΔtolC, small panel, Tables 1a/1b; no visual growth after approx. 16 h
Procedure: as §1, §2

Row | Structure (SMILES) | MIC (E. coli WT DSM-1116) [µg/mL] | MIC (S. aureus Newman) [µg/mL] | MIC (P. aeruginosa WT PA14) [µg/mL] | MIC (P. aeruginosa ΔmexAB) [µg/mL] | MIC (E. coli ΔtolC) [µg/mL]
1 | CC(C)Oc1c(NC(=O)c2ccc(NC(=O)[C@H](CC(N)=O)NC(=O)c3ccc(NC(=O)c4ccc(S(C)(=O)=O)cc4)cc3)cc2)ccc(C(=O)Nc2ccc(C(=O)O)cc2)c1O [Compound 56, (S)-4-(4-(4-(4-amino-2-(4-(4-(methylsulfonyl)benzamido)benzamido)-4-oxobutanamido)benzamido)-2-hydroxy-3-isopropoxybenzamido)benzoic acid] | 2 (≈ 2.31 µM) | > 64 | > 64 | > 64 | < 0.03
2 | CC(C)Oc1c(NC(=O)c2ccc(NC(=O)[C@H](CC(N)=O)NC(=O)c3ccc(NC(=O)c4ccc5c(c4)COC5=O)cc3)cc2)ccc(C(=O)Nc2ccc(C(=O)O)cc2)c1O [Compound 57, (S)-4-(4-(4-(4-amino-4-oxo-2-(4-(1-oxo-1,3-dihydroisobenzofuran-5-carboxamido)benzamido)butanamido)benzamido)-2-hydroxy-3-isopropoxybenzamido)benzoic acid] | < 0.03 | 1 (≈ 1.19 µM) | > 64 | 1 (≈ 1.19 µM) | < 0.03
3 | C/C(=C\c1ccc(C#N)cc1)C(=O)Nc1ccc(C(=O)N[C@@H](CC(N)=O)C(=O)Nc2ccc(C(=O)Nc3ccc(C(=O)Nc4ccc(C(=O)O)cc4)c(O)c3OC(C)C)cc2)cc1 [Compound 58, (S,E)-4-(4-(4-(4-amino-2-(4-(3-(4-cyanophenyl)-2-methylacrylamido)benzamido)-4-oxobutanamido)benzamido)-2-hydroxy-3-isopropoxybenzamido)benzoic acid] | 0.125 (≈ 0.147 µM) | 0.06 (≈ 0.0704 µM) | 1 (≈ 1.17 µM) | 0.25 (≈ 0.293 µM) | < 0.03
4 | CC(C)COc1c(NC(=O)c2ccc(NC(=O)[C@H](CC(N)=O)NC(=O)c3ccc(NC(=O)c4ccc([N+](=O)[O-])cc4)cc3)cc2)ccc(C(=O)Nc2ccc(C(=O)O)cc2)c1O [Compound 65, (S)-4-(4-(4-(4-amino-2-(4-(4-nitrobenzamido)benzamido)-4-oxobutanamido)benzamido)-2-hydroxy-3-isobutoxybenzamido)benzoic acid] | > 64 | 1 (≈ 1.18 µM) | > 64 | > 64 | > 64
5 | CC(C)Oc1cc(C(=O)Nc2ccc(C(=O)O)cc2)ccc1NC(=O)c1ccc(NC(=O)[C@H](CC(N)=O)NC(=O)c2ccc(NC(=O)c3ccc([N+](=O)[O-])cc3)cc2)cc1 [Compound 69, (S)-4-(4-(4-(4-amino-2-(4-(4-nitrobenzamido)benzamido)-4-oxobutanamido)benzamido)-3-isopropoxybenzamido)benzoic acid] | > 64 | > 64 | > 64 | 1 (≈ 1.23 µM) | 0.06 (≈ 0.0735 µM)
6 | CC(C)Oc1c(NC(=O)c2ccc(NC(=O)[C@H](CC(N)=O)NC(=O)c3ccc(NC(=O)c4ccc([N+](=O)[O-])cc4)cc3)cc2)ccc(C(=O)Nc2ccc(C(N)=O)cc2)c1O [Compound 78, (S)—N1-(4-((4-((4-carbamoylphenyl)carbamoyl)-3-hydroxy-2-isopropoxyphenyl)carbamoyl)phenyl)-2-(4-(4-nitrobenzamido)benzamido)succinamide] | 32 (≈ 38.5 µM) | 64 (≈ 77 µM) | > 64 | > 64 | ≤ 0.03
7 | CC(C)Oc1c(NC(=O)c2ccc(NC(=O)[C@H](CC(N)=O)NC(=O)c3ccc(NC(=O)c4ccc(C#N)cc4)cc3)cc2)ccc(C(=O)Nc2ccn(C)c2)c1O [Compound 87, (S)-2-(4-(4-cyanobenzamido)benzamido)-N1-(4-((3-hydroxy-2-isopropoxy-4-((1-methyl-1H-pyrrol-3-yl)carbamoyl)phenyl)carbamoyl)phenyl)succinamide] | > 64 | > 64 | > 64 | > 64 | < 0.03
8 | CC(C)Oc1c(NC(=O)c2ccc(NC(=O)[C@H](CC(N)=O)NC(=O)c3ccc(NC(=O)c4ccc(C#N)cc4)cc3)cc2)ccc(C(=O)Nc2cc(C(=O)O)n(C)c2)c1O [Compound 88, (S)-4-(4-(4-(4-amino-2-(4-(4-cyanobenzamido)benzamido)-4-oxobutanamido)benzamido)-2-hydroxy-3-isopropoxybenzamido)-1-methyl-1H-pyrrole-2-carboxylic acid] | 0.5 (≈ 0.614 µM) | 64 (≈ 78.5 µM) | > 64 | 8 (≈ 9.82 µM) | < 0.03
9 | CC(C)Oc1c(NC(=O)c2ccc(NC(=O)[C@H](CC(N)=O)NC(=O)c3ccc(NC(=O)c4ccc(C#N)cc4)cc3)cc2)ccc(C(=O)NCc2ccc(C(=O)O)cc2)c1O [Compound 89, (S)-4-((4-(4-(4-amino-2-(4-(4-cyanobenzamido)benzamido)-4-oxobutanamido)benzamido)-2-hydroxy-3-isopropoxybenzamido)methyl)benzoic acid] | > 64 | > 64 | > 64 | > 64 | 0.25 (≈ 0.303 µM)
10 | CC(C)Oc1c(NC(=O)c2ccc(NC(=O)[C@H](CC(N)=O)NC(=O)c3ccc(NC(=O)c4ccc(C#N)cc4)cc3)cc2)ccc(C(=O)Nc2cccc(C(=O)O)c2)c1O [Compound 90, (S)-3-(4-(4-(4-amino-2-(4-(4-cyanobenzamido)benzamido)-4-oxobutanamido)benzamido)-2-hydroxy-3-isopropoxybenzamido)benzoic acid] | 0.5 (≈ 0.616 µM) | 2 (≈ 2.46 µM) | > 64 | > 64 | 0.03 (≈ 0.037 µM)
11 | CC(C)Oc1c(NC(=O)c2ccc(NC(=O)[C@H](CC(N)=O)NC(=O)c3ccc(NC(=O)c4ccc(C#N)cc4)cc3)cc2)ccc(C(=O)NC2CCNCC2)c1O [Compound 91, (S)-2-(4-(4-cyanobenzamido)benzamido)-N1-(4-((3-hydroxy-2-isopropoxy-4-(piperidin-4-ylcarbamoyl)phenyl)carbamoyl)phenyl)succinamide] | > 64 | > 64 | > 64 | > 64 | > 64
12 | CC(C)Oc1c(NC(=O)c2ccc(NC(=O)[C@H](CC(N)=O)NC(=O)c3ccc(NC(=O)c4ccc(C#N)cc4)cc3)cc2)ccc(C(=O)Nc2ccc(S(=O)(=O)O)cc2)c1O [Compound 92, (S)-4-(4-(4-(4-amino-2-(4-(4-cyanobenzamido)benzamido)-4-oxobutanamido)benzamido)-2-hydroxy-3-isopropoxybenzamido)benzenesulfonic acid] | > 64 | > 64 | > 64 | > 64 | 0.25 (≈ 0.295 µM)
13 | CC(C)Oc1c(NC(=O)c2ccc(NC(=O)[C@H](CC(N)=O)NC(=O)c3ccc(NC(=O)c4ccc(C#N)cc4)cc3)cc2)ccc(C(=O)N[C@@H]2CONC2=O)c1O [Compound 93, (S)-2-(4-(4-cyanobenzamido)benzamido)-N1-(4-((3-hydroxy-2-isopropoxy-4-(((R)-3-oxoisoxazolidin-4-yl)carbamoyl)phenyl)carbamoyl)phenyl)succinamide] | > 64 | > 64 | > 64 | > 64 | 0.5 (≈ 0.644 µM)
14 | CC(C)Oc1c(NC(=O)c2ccc(NC(=O)[C@H](CC(N)=O)NC(=O)c3ccc(NC(=O)c4ccc(C#N)cc4)cc3)cc2)ccc(C(=O)Nc2ccncc2)c1O [Compound 94, (S)-2-(4-(4-cyanobenzamido)benzamido)-N1-(4-((3-hydroxy-2-isopropoxy-4-(pyridin-4-ylcarbamoyl)phenyl)carbamoyl)phenyl)succinamide] | > 64 | > 64 | > 64 | > 64 | 0.03 (≈ 0.039 µM)
15 | C/C(=C/c1ccc(C#N)cc1)C(=O)Nc1ccc(C(=O)N[C@@H](CC(N)=O)C(=O)Nc2ccc(C(=O)Nc3ccc(C(=O)Nc4ccc(C(=O)O)cc4)c(O)c3OC(C)C)cc2)cc1 [Compound 122, (S,Z)-4-(4-(4-(4-amino-2-(4-(3-(4-cyanophenyl)-2-methylacrylamido)benzamido)-4-oxobutanamido)benzamido)-2-hydroxy-3-isopropoxybenzamido)benzoic acid] | 1 (≈ 1.17 µM) | 8 (≈ 9.39 µM) | > 64 | > 64 | 0.25 (≈ 0.293 µM)
16 | CO[C@@H](C(N)=O)[C@H](NC(=O)c1ccc(NC(=O)/C(C)=C/c2ccc(C#N)cc2)cc1)C(=O)Nc1ccc(C(=O)Nc2ccc(C(=O)Nc3ccc(C(=O)O)cc3)c(O)c2OC(C)C)cc1 [Compound 123, 4-(4-(4-((2S,3R)-4-amino-2-(4-((E)-3-(4-cyanophenyl)-2-methylacrylamido)benzamido)-3-methoxy-4-oxobutanamido)benzamido)-2-hydroxy-3-isopropoxybenzamido)benzoic acid] | 1 (≈ 1.13 µM) | 4 (≈ 4.54 µM) | 8 (≈ 9.07 µM) | 2 (≈ 2.27 µM) | 0.5 (≈ 0.567 µM)
